Measurements taken from patent publication US20030165580A1, “Safe pharmaceutical composition for treatment and prevention of gynecological disease” (priority 2002, published 2003).

Legend:
[1] = tested on: uterine peroxidase; assay: Uterine peroxidase activity (gene product of uterine) in cycloheximide-injured rats; assay type: in vivo, Sprague-Dawley rats; settings: treatment group: cycloheximide + LIG, intraperitoneal injection, female rats; P < 0.001 vs control
Experimental: It is known that peroxidase induction is a useful market for estrogen-effected growth responses in uterine. The uterine peroxidase is a useful gene product for assessing effect of hormones on uterine. […] Female Sprague-Dawley rats at 20 days of age, allowed free access to food and water. Castrate rats were the same strain. Rats of normal group were administered in saline solution by intraperitoneal injection. Rats of control group were injected cycloheximide. Rats of treatment group injected cycloherimide+LIG. At the indicated times the rats were sacrificed by decapitation. The entire uterus from oviduct to cervix was removed, quickly dissected free of fat and connective tissue, blotted on hard filter paper, and weighed. Each uterus was minced with a scissors into a 12-ml polycarbonate tube and homogenized, 10 sec with ice cooling in 10 mM Tris.HCl, pH 7.2, buffer (25 mg of tissue per ml unless otherwise stated), with homogenizer. The homogenates were centrifuged for 45 min at 39,000×g at 2°. The hypotonic supernatant fraction contains no peroxidase activity. […] The reaction was started by the addition of enzyme (extract), and initial rates of guaiacol oxidation were determined from the increase in absorbance at 470 nm for the first minutes.

[2] = tested on: human blood lymphocytes; assay: Immune function of human blood lymphocytes (3H-TdR incorporation); assay type: cell-based; settings: LIG added to culture medium of lymphocytes from old volunteers (60-70 years)
Experimental: Twenty (20) old volunteers (60-70 years of age) and 10 healthy young persons participated in the experiment. 2 ml of venous blood, heparinized was obtained from each of the participants. The Study of the effects of LIG was carried out by using Eagle's Minimal Essential Medium MEM). MEM was supplemented with 0.125 ml of heat-inactivated fetal calf serum, 100 units of Penicillin and 0.1 mg of streptomycin per ml of medium. Culture medium was divided into treated (LIG) and control group. LIG was added to the culture medium of treatment group. The culture medium of control group was mixed with same volume as that of LIG of normal saline on the 72 hours of culture. The ^3H-thymidine (^3H-TdR) was added into all the cultures (2 μci/ml) for last 12 hours of culture. The cells were harvested on 0.45 μm filters, washed with phosphate buffer (ph 7.4) and bleached with H2O2. The filters were then dried and the incorporation of ^3H-TdR into lymphocytes cell was measured by scintillation counter.

[3] = tested on: hemopoietic system; assay: Recovery of hemopoiesis in mice treated by cyclophosphamide; assay type: in vivo
Excerpt: (§1) Effects of LIG on hemopoietic system were investigated. […] With increased cells in bone-marrow (BMC), endogenous colonies in spleen and higher ^3H-TdR uptake in marrow and spleen. The level of serum colony stimulating factor (CSF) increased after injection.

[4] = tested on: uterine tissues; assay: DNA synthesis of uterine (3H-TdR) in cycloheximide-injured rats; assay type: in vivo, Sprague-Dawley rats; settings: treatment group: cycloheximide + LIG, female rats
Experimental: Female Sprague-Dawley rats at 20 days of age, allowed free access to food and water and, as immature rats, used by age 23 days. Castrate rats were the same strain. Rats of normal group were administered in saline solution by intraperitoneal injection. Rats of control group were injected cycloheximide. Rats of treatment group injected cycloherimide+LIG. At the indicated times the rats were sacrificed by decapitation. The entire uterus from oviduct to cervix was removed, quickly dissected free of fat and connective tissue, blotted on hard filter paper, and weighed. Each uterus was minced with a scissors into a 12-ml polycarbonate tube and homogenized, 10 sec with ice cooling in 10 mM Tris.HCl, pH 7.2, buffer (10 mg of tissue per ml unless otherwise stated), with homogenizer. Aliquets used for DNA analysis. Determination of DNA is used methods of ^3H-TdR.

[5] = tested on: interleukin-2 (rIL-2); assay: Interleukin-2 (rIL-2) determination; settings: treatment group
Excerpt: The methods of determination rIL-2 were regular.

[6] = tested on: white blood cells; assay: White blood cells in rats treated by cyclophosphamide; assay type: in vivo; settings: LIG + cyclophosphamide, 10 days treatment, P < 0.01 vs control
Excerpt: Action of LIG and cyclophosphamide on white blood cells was investigated by means of white blood cells assay. […] Method of testing in animal is standard. The dosage of LIG and cyclophosphamide is the same as in above examples. Time of treatment is 10 days.

[7] = tested on: bone marrow stem cells (CFU-S); assay: Spleen colony assay, bone marrow stem cells (CFU-S); assay type: in vivo; settings: treatment group, mice treated by cyclophosphamide; P < 0.01 vs control
Excerpt: as §1, with “injection. […] Pharmacological effects as illustrated by the following table: by means of the spleen colony assay technique the action of LIG on bone marrow stem cells (CFU-S)” for “injection.”

[8] = tested on: uterine RNA; assay: Uterine RNA concentration; assay type: in vivo; settings: treatment group; absorbance at 260 nm; P < 0.01 vs control
Experimental: Uterine samples (100 mg) were digested in a 4 M guanidium thiocyanate solution, to which was added 50 μl of 2 M sodium acetate (pH 4.0), 500 μl phenol, and finally 200 μl chloroform/isoamyl alcohol (24:1, v/v) sequentially, with mixing after each addition. The RNA from the resultant solution was pelleted by mixing with 1 vol. isopropanol and incubating at −20° C. for 2 h and spun at 12000×g for 12 min, then resuspended in 0.5% sodium dodecyl sulfate (SDS). The RNA suspension was incubated for 10 min at 65° C. and stored at −20° C. until use. RNA concentration was determined by absorbance intensity at 260 nm.

[9] = tested on: lymphocytes; assay: Lymphoblastoid transformation test (3H-TdR liquid scintillation); assay type: in vivo, mice; settings: treatment group, P < 0.01 vs control
Experimental: By means of ^3H-TdR liquid scintillation assay technique, the action of LIG on lymphoblastoid transformation was investigated method:
(1) Experimental procedure of animal is the same as in Example 2.
(2) Lemphoblastoid transformation test:
a. Culture media—RPMI 1640, medium 199 minimal essential medium (Eagle).
b. Buffer—Hepes buffer, the final concentration at 37° C. was 25 mM, to maintain the pH of the medium at 7.31.
c. Serum—generally 15-205 fetal bovine serum was incorporated, for lymphocytes from mice, 5% was used.
d. Gaseous phase—5% CO2 in air.
e. Cell concentration—generally 1-2×10^6/ml.
f. Stimulants—20 μl/ml for phytohemagglutinin containing polysaccharide (PHA-M) or 10 μl/ml for polysaccharide-free purified phytohemagglutinin (PHA-P).
a. The conditions of cell culture are same as above. ^3H-TdR was added after 48 hours of incubation at a final concentration of 1 μCi/ml and continued the incubation for 24 hours.
b. Washed the cells twice with cold normal saline and the erythrocytes were lysed. The intact lymphocytes were again washed once with cold saline. Spun down the lymphocytes and added 2 ml of 10% trichloroacetic acid to precipitate the protein. Washed twice with normal saline. Added 2 ml of ethanol:ether (1:1) to wash once. […]
c. Added 4 ml of scintillation fluid to 0.1 ml of the final sample and counted in a liquid scintillation counter.

[10] = tested on: peritoneal macrophages; assay: Phagocytosis of peritoneal macrophage of mice; assay type: in vivo; settings: LIG 5.5 mg/kg intraperitoneally daily for 5 days, cyclophosphamide 4.5 mg/kg; macrophages with phagocytized chick red blood cells per 100 macrophages; P < 0.01 vs control
Experimental: Male mice weight 18-20 g were used in the experiments and were divided into treated (LIG) and control groups. The dosage of LIG was 5.5 mg/kg injected intraperitoneally. The control mice were injected with same volume of normal saline. These injections were repeated daily for 5 days, both treated and control group were injected intraperitoneally with cyclosphosphamide. The dosage of cyclophosphamide is 4.5 mg/kg. The same experimental procedure for example 3, 4 and 5 in testing mice were used. Added 0.02 ml of 5% washed chick red blood cell suspension to 0.5 ml of the peritoneal exudates. Shook gently to mix and incubate at 37° C. for 5 minutes. Dipped two cover slips, closed to each other, in the above mixture and incubated for 30 minutes for the migration of the macrophages along the cover slips, fixed and stained with Sharma stain. Examined microscopically for: Phagocytic rate—number of macrophages with phagocytized chick red blood cells per 100 macrophages counted. Method of animal model is regular.

[11] = mice treated by cyclophosphamide

`CCC/C=C1\OC(=O)C2=C1CCC=C2` [LIG, ligustilide] was tested, and the Peroxidase activity [1] was 7.6 ± 0.8 Enzyme units/10 mg uterus, the “3H-TdR incorporation into lymphocytes, CPM” value [2] was 2180 ± 360 CPM and the “Level of serum colony stimulating factor (CSF)” value ([3]; after injection) was “increased”. For the same compound, the “3H-TdR uptake in marrow and spleen” value [3, 11] was “higher”, the “Cells in bone-marrow (BMC)” value [3, 11] was “increased” and the “Recovery rate of hemopoieses” value [3, 11] was “markedly improve”. For the same compound, the DNA synthesis [4] was 1052 ± 110 CPM/10 g uterine tissues, the IL-2 [5] was 75.6 ± 8.9 U/ml and the White blood cells [6] was 13.8 ± 2.0 × 10^3/cm^3. For the same compound, the “Mean (CFU-S ± SD)” value [7] was 28.5 ± 3.5, the RNA units [8] was 0.92 ± 0.12 and the “Lymphoblastoid transformation CPM ± SD” value [9] was 1650 ± 270 CPM. The “Phagocytic (rate ± SD)” value [10] was 26.8 ± 3.1.
